Laboratory results reported in publication PMC12166061, “Crystallographic fragment screening reveals ligand hotspots in TRIM21 PRY-SPRY domain” (Communications Chemistry, 2025).
Read-outs that look alike come from different tables or passages of the source.

Columns and labels:
[1] = target: T1, full-length hTRIM21 with C-terminal NanoLuc fusion (Homo sapiens, UniProt P19474); experiment: cell-based; details: tracer AL244 (2)
Procedure: (§4) Full-length hTRIM21 with N- or C-terminal NanoLuc fusion was transfected into HEK293T cells (ATCC) using Fugene 4K (Promega, Cat. No. E5911) transfection reagent according to the manufacturer’s instructions. Following protein expression for 24 h, cells were split again in OptiMEM medium (phenol red free, Life Technologies) to a final amount of 2 × 10^5 cells per mL and 10 µL per well were distributed in a 384 well plate. Next, tracer AL244 (2) was added in concentrations from 3 µM to 6 nM. […] Then, cells were permeabilized through the addition of 25 nL Digitonin (0.05 µg µL^−1). Following another 5-min incubation, filtered luminescence was measured again. The data acquired in the tracer titration was converted into mBRET units (Fluorescence intensity at 610 nm / Luminescence intensity at 450 nm) × 1000 and graphed using Graph-Pad Prism v.9 software.
(§5) A 384-well plate with cells expressing hTRIM21-NLuc was prepared as described above. […] Then, cells were permeabilized with Digitonin and, following 5 min of incubation, filtered luminescence was measured. The data acquired in the competition experiments were converted to mBRET units, then normalized to the positive and negative control and graphed using Graph-Pad Prism v.9 software using a normalized three-parameter curve fit using the following equation: y = 100/[1 + 10(x − logIC50)].

[2] = target: T1, full-length hTRIM21 with C-terminal NanoLuc fusion; details: for cell permeability: inferred from intact versus lysed NanoBRET; for tracer displacement: compound at 500 µM, NanoBRET
Procedure: as §4, §5

[3] = target: T2, His-mTRIM21 PRYSPRY (Mus musculus, UniProt Q62191); experiment: SPR fragment screening and dose response, mouse TRIM21 PRY-SPRY; type: binding
T2 construct: mouse TRIM21 PRY-SPRY domain (residues V291-M470, UniProt-ID: Q62191); made in house; host or cells: E. coli BL21(DE3)
T2 sequence (Q62191 291-470): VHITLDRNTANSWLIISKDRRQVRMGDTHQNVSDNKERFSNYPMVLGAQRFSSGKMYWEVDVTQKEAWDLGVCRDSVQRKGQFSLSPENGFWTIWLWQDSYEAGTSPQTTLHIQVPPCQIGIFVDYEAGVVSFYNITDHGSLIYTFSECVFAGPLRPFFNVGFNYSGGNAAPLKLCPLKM
Procedure: (§1) His-mTRIM21 PRYSPRY and His-SUMO-hTRIM21 PRY-SPRY were immobilized onto flow channels (FC) FC2, FC3, and FC4 of a Series S sensor chip NTA (Cytiva). […] Proteins (10–20 µg mL^−1 in HBS-P+) were injected at 10 µL min^−1 to achieve response levels of 3500–4300 RU for mTRIM21 and 3600–4000 RU for hTRIM21. Flow channel 1 (FC1) was used as a reference surface. Surface deactivation and nickel stripping were achieved using 1 M ethanolamine and 350 mM ethylenediaminetetraacetic acid (EDTA), respectively.
(§2) Fragment screening was conducted by injecting 500 µM fragments diluted in running buffer (HBS-P+ with 1 mM TCEP and 2% (v/v) dimethyl sulfoxide (DMSO)) over all flow-channels for 30 s at 30 µL/min^−1. To account for surface drift, 50 µM of a control compound (Suramin) was injected every 15 fragment injections, and blank injections were performed every 5 fragments. Responses were analyzed by blank subtraction, reference subtraction (FC1), solvent correction, molecular weight adjustment, and drift correction using Biacore T200 Evaluation Software v3.2.1. The binding threshold for fragment hits was set based on the Suramin-binding response level.
The data was solvent-corrected, reference-subtracted (FC1), and blank-subtracted using the T200 Evaluation Software v3.2.1. Sensorgrams were subsequently replotted using Graphpad v.9 software.

[4] = target: T3, human TRIM21 PRY-SPRY domain (Homo sapiens, UniProt P19474); experiment: Differential scanning fluorimetry (DSF, ΔTm), human TRIM21 PRY-SPRY domain; type: binding
T3 construct: Human TRIM21 PRY-SPRY domain (residues V287-I465, UniProt-ID: P19474); His6 (N, cleaved yes); SUMO (N, cleaved yes); made in house; host or cells: E. coli BL21(DE3)
Procedure: (§3) Briefly, recombinant murine and human TRIM21 PRY-SPRY domain at a concentration of 8 μM were mixed with 2 mM compound in their respective SEC buffer. SYPRO Orange (5000×, Invitrogen) was added as a fluorescence probe (1 µl per mL). Subsequently, temperature-dependent protein unfolding profiles were measured using the QuantStudio™ 5 realtime PCR machine (Thermo Fisher). Excitation and emission filters were set to 465 nm and 590 nm, respectively. The temperature was raised with a step rate of 3 °C per minute. Data points were analysed with the internal software (Thermal Shift SoftwareTM Version 1.4, Thermo Fisher) using the Boltzmann equation to determine the inflection point of the transition curve.

[5] = target: T4, murine TRIM21 PRY-SPRY domain (Mus musculus, UniProt Q62191); experiment: Differential scanning fluorimetry (DSF, ΔTm), mouse TRIM21 PRY-SPRY domain; type: binding
T4 construct: mouse TRIM21 PRY-SPRY domain (residues V291-M470, UniProt-ID: Q62191); made in house; host or cells: E. coli BL21(DE3)
T4 sequence (Q62191 291-470): T2 sequence (Q62191 291-470)
Procedure: as §3

[6] = target: T5, His-SUMO-hTRIM21 PRY-SPRY (Homo sapiens, UniProt P19474); experiment: SPR fragment screening, human TRIM21 PRY-SPRY; type: binding
T5 construct: Human TRIM21 PRY-SPRY domain (residues V287-I465, UniProt-ID: P19474); made in house; host or cells: E. coli BL21(DE3)
Procedure: as §1, §2

[7] = target: TRIM21; details: human TRIM21; read-out: affinity; cited from earlier work
[8] = test system: TRIM21 PRY-SPRY domain; experiment: DSF ΔTm of control suramin, species not stated; type: binding; details: at the screening concentration
Procedure: as §3

[9] = target: TRIM21; details: mouse TRIM21; read-out: affinity; cited from earlier work
[10] = single dose 500 µM fragment, relative response, suramin reference threshold 100 relative RU

T1 sequence (P19474 whole entry, the tested form may be a part): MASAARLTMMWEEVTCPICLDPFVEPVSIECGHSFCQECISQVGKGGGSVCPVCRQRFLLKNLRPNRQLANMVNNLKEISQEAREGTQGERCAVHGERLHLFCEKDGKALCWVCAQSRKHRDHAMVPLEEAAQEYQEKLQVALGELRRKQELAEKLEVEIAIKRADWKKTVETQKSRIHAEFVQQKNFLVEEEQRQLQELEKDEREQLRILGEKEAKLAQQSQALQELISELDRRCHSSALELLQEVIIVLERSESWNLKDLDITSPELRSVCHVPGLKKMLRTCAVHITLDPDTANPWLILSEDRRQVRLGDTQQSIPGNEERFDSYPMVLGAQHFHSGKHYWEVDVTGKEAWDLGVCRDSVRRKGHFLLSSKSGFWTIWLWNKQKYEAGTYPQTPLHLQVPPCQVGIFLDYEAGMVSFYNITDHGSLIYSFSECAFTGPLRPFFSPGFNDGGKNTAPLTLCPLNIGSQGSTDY
T5 sequence (P19474 287-465): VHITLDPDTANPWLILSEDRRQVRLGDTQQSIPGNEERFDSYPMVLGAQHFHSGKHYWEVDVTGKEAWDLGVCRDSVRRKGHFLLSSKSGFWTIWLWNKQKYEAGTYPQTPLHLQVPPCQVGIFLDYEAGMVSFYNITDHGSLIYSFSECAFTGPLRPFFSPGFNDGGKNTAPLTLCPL
T3 sequence (P19474 287-465): as above

CSc1cc(F)ccc1-c1ccc(C(=O)NCC2CCCCC2)c(S(C)(=O)=O)c1 [AL236 (1)]
EC50 ([1]; NanoBRET EC50 (intact), intact (live) HEK293T cells): 0.197 µM
EC50 ([1]; NanoBRET EC50 (lysed), permeabilized (lysed mode, digitonin) cells): 0.297 µM
cell permeability [2]: high cell permeability

O=C(Nc1ccc(S(=O)(=O)Nc2ccccn2)cc1)c1ccccc1 [AL257 (3)]
EC50 ([1]; NanoBRET EC50 (intact), intact HEK293T cells): 143 µM
EC50 ([1]; NanoBRET EC50 (lysed), lysed cells (digitonin)): 246 µM
tracer displacement [2]: displaced the tracer almost completely
cell permeability [2]: effective cell penetration

CN(CCCCNS(=O)(=O)c1ccc(N)cc1)C(=O)c1cccs1 [AL266 (4)]
tracer displacement [2]: no activity

CC(=O)NC1CNc2ccccc2C1 (centres unmarked) [Fragment Z1492796719]
SPR mTRIM21 (Response) [3, 10]: 54.86
Tm-Shift hTRIM21 ([4]; 2 mM compound, 8 μM protein): -0.1 °C
Tm-shift mTRIM21 ([5]; 2 mM compound, 8 μM protein): -0.1 °C
SPR hTRIM21 (Response) [6, 10]: 55.11

CCc1csc(-c2c[nH]cn2)n1 [Fragment Z1530301542]
SPR mTRIM21 (Response) [3, 10]: 39.06
Tm-Shift hTRIM21 ([4]; 2 mM compound, 8 μM protein): 0.1 °C
Tm-shift mTRIM21 ([5]; 2 mM compound, 8 μM protein): -0.1 °C
SPR hTRIM21 (Response) [6, 10]: 45.06

Cc1c(Cl)cccc1NC(=O)[C@@H]1CCCO1 [Fragment Z1545312521]
SPR mTRIM21 (Response) [3, 10]: 31.58
Tm-Shift hTRIM21 ([4]; 2 mM compound, 8 μM protein): -0.7 °C
Tm-shift mTRIM21 ([5]; 2 mM compound, 8 μM protein): -0.9 °C
SPR hTRIM21 (Response) [6, 10]: 24.5

O=S1(=O)CCN(Cc2ccco2)CC1 [Fragment Z1568344634]
SPR mTRIM21 (Response) [3, 10]: 60.76
Tm-Shift hTRIM21 ([4]; 2 mM compound, 8 μM protein): 0 °C
Tm-shift mTRIM21 ([5]; 2 mM compound, 8 μM protein): -0.2 °C
SPR hTRIM21 (Response) [6, 10]: 40.64

Cc1nsc(N2CCCNCC2)n1 [Fragment Z1578665941]
SPR mTRIM21 (Response) [3, 10]: 154
Tm-Shift hTRIM21 ([4]; 2 mM compound, 8 μM protein): 0.1 °C
Tm-shift mTRIM21 ([5]; 2 mM compound, 8 μM protein): -0.1 °C
SPR hTRIM21 (Response) [6, 10]: 59.22

CC(=O)Nc1cc2c(cc1C)OCO2 [Fragment Z1635496816]
SPR mTRIM21 (Response) [3, 10]: 140.9
Tm-Shift hTRIM21 ([4]; 2 mM compound, 8 μM protein): 0.1 °C
Tm-shift mTRIM21 ([5]; 2 mM compound, 8 μM protein): 0 °C
SPR hTRIM21 (Response) [6, 10]: 148.8

CNC(=O)C1CNCCO1 (centres unmarked) [Fragment Z1636723439]
SPR mTRIM21 (Response) [3, 10]: 142.5
Tm-Shift hTRIM21 ([4]; 2 mM compound, 8 μM protein): 0.1 °C
Tm-shift mTRIM21 ([5]; 2 mM compound, 8 μM protein): 0.4 °C
SPR hTRIM21 (Response) [6, 10]: 46.15

OC1CN(C(c2ccccc2)c2ccccc2)C1 [Fragment Z1696844792]
SPR mTRIM21 (Response) [3, 10]: 107.8
Tm-Shift hTRIM21 ([4]; 2 mM compound, 8 μM protein): -0.8 °C
Tm-shift mTRIM21 ([5]; 2 mM compound, 8 μM protein): -0.5 °C
SPR hTRIM21 (Response) [6, 10]: 122.6

CS(=O)(=O)NCC1CCNCC1 [Fragment Z1741966151]
SPR mTRIM21 (Response) [3]: 29.2
Tm-Shift hTRIM21 [4]: 0.1 °C
Tm-shift mTRIM21 [5]: 0.2 °C
SPR hTRIM21 (Response) [6]: 18.48

CN(C)c1noc(C2CCNCC2)n1 [Fragment Z1742054999]
SPR mTRIM21 (Response) [3]: 84.81
Tm-Shift hTRIM21 [4]: -0.2 °C
Tm-shift mTRIM21 [5]: 0 °C
SPR hTRIM21 (Response) [6]: 41.66

COC1CN(Cc2cncs2)CCC1C (centres unmarked) [Fragment Z1787761777]
SPR mTRIM21 (Response) [3, 10]: -42.9
Tm-Shift hTRIM21 ([4]; 2 mM compound, 8 μM protein): -0.3 °C
Tm-shift mTRIM21 ([5]; 2 mM compound, 8 μM protein): -1.6 °C
SPR hTRIM21 (Response) [6, 10]: -50.75

Cc1cc(N2CCCCC2)nc(CO)n1 [Fragment Z1980894300]
SPR mTRIM21 (Response) [3, 10]: 77.01
Tm-Shift hTRIM21 ([4]; 2 mM compound, 8 μM protein): 0 °C
Tm-shift mTRIM21 ([5]; 2 mM compound, 8 μM protein): -0.2 °C
SPR hTRIM21 (Response) [6, 10]: 66.59

CN(C)C(=O)N1CCOCC12CCOC2 (centres unmarked) [Fragment Z1998104358]
SPR mTRIM21 (Response) [3]: 24.94
Tm-Shift hTRIM21 [4]: 0.1 °C
Tm-shift mTRIM21 [5]: 0 °C
SPR hTRIM21 (Response) [6]: 21.66

CC(O)c1cnn(C2CCCC2)c1 (centres unmarked) [Fragment Z2004563941]
SPR mTRIM21 (Response) [3, 10]: 41.62
Tm-Shift hTRIM21 ([4]; 2 mM compound, 8 μM protein): 0 °C
Tm-shift mTRIM21 ([5]; 2 mM compound, 8 μM protein): -0.2 °C
SPR hTRIM21 (Response) [6, 10]: 39.09

CC(=O)N1C[C@H]2CC[C@H]1c1ccccc12 [Fragment Z2017861827]
SPR mTRIM21 (Response) [3]: 37.47
Tm-Shift hTRIM21 [4]: -0.2 °C
Tm-shift mTRIM21 [5]: -0.7 °C
SPR hTRIM21 (Response) [6]: 47.45

CCNC1CCN(c2ccncc2)CC1 [Fragment Z2065616520]
Tm-Shift hTRIM21 ([4]; 2 mM compound, 8 μM protein): 0.6 °C
Tm-shift mTRIM21 ([5]; 2 mM compound, 8 μM protein): 0.4 °C
tracer displacement [2]: ~ 40%

O=C(COC(F)F)N1CC2CCCC2C1 (centres unmarked) [Fragment Z2072621991]
SPR mTRIM21 (Response) [3]: 46.61
Tm-Shift hTRIM21 [4]: -0.2 °C
Tm-shift mTRIM21 [5]: 0 °C
SPR hTRIM21 (Response) [6]: 28.49

O=C1CN(Cc2ccccc2)CC(=O)N1 [Fragment Z3220108246]
SPR mTRIM21 (Response) [3, 10]: 58.83
Tm-Shift hTRIM21 ([4]; 2 mM compound, 8 μM protein): -0.1 °C
Tm-shift mTRIM21 ([5]; 2 mM compound, 8 μM protein): -0.5 °C
SPR hTRIM21 (Response) [6, 10]: 60.94

Cc1ccc(C(=O)Nc2ccc(S(=O)(=O)O)c3cc(S(=O)(=O)O)cc(S(=O)(=O)O)c23)cc1NC(=O)c1cccc(NC(=O)Nc2cccc(C(=O)Nc3cc(C(=O)Nc4ccc(S(=O)(=O)O)c5cc(S(=O)(=O)O)cc(S(=O)(=O)O)c45)ccc3C)c2)c1 [suramin]
Kd [7]: ~10 µM
SPR response of reference ([3]; suramin injected at 50 µM as reference, species not stated): 100 relative RU
ΔTm shift [8]: 2.3 °C
Kd [9]: ~10 µM
